Test results as given in patent US11632948B2, “Recrystallization inhibitor” (THE UNIVERSITY OF WARWICK, priority 2017, dated 2023).
No end group written: not given here.

Assay: Ice recrystallisation inhibition (IRI) SPLAT assay
Settings: 30 min at −8° C., relative to PBS control
Protocol: A series of peptides were tested for IRI activity using a SPLAT assay. Briefly, this involved seeding a large number of small ice crystals, which were annealed for 30 minutes at −8° C., before being photographed. The average crystal size was then measured, relative to a PBS control, with smaller values indicating more IRI activity, FIGS. 3B/1C.
Ice recrystallisation inhibition (IRI) activity was measured using a modified splat assay. A 10 μL sample of polymer dissolved in PBS buffer (pH 7.4) was dropped 1.40 m onto a chilled glass coverslip, resting on a thin aluminium block placed on dry ice. Upon hitting the coverslip, a wafer with diameter of approximately 10 mm and thickness 10 μm was formed instantaneously. The glass coverslip was transferred onto the Linkam cryostage and held at −8° C. under N2 for 30 minutes. Photographs were obtained using an Olympus CX 41 microscope with a UIS-2 20 ×/0.45/∞/0-2/FN22 lens and crossed polarizers (Olympus Ltd, Southend-on-Sea, UK), equipped with a Canon DSLR 500D digital camera. Images were taken of the initial wafer (to ensure that a polycrystalline sample had been obtained) and again after 30 minutes. Image processing was conducting using Image J, which is freely available. In brief, five of the largest ice crystals in the field of view were measured and the single largest length in any axis recorded. The average (mean) of these five measurements was then calculated to find the largest grain dimension along any axis. This was repeated for three individual wafers, and the average (mean) of these three values was calculated to give the mean largest grain size (MLGS). The average value was compared to that of a PBS buffer negative control.

Molecule | IRI activity
O=C(O)[C@@H]1CCCN1 [proline, L-proline] | no IRI activity
PGlu10: poly(glutamic acid) 10-mer (SEQ ID NO: 18), computationally modelled | no IRI activity
poly(glutamic acid) [PGlu110] | no IRI
poly(lysine) (KKKKKKKKKKKKKKKKKKKKKKKKKKKKKKKKKKKKKKKKKKKKKKKKKK; Poly(lysine) with 50 Lys residues) [PLys50] | no IRI
poly(proline) | significant IRI activity
poly-L-proline mol wt 1,000-10,000 [PPro10-100] | potent inhibition

Same assay, conditions: comparison

Molecule | IRI activity compared to another polymer
poly(proline) | more active than poly(hydroxyproline)

Assay: not given
Settings: from cited references; cited from earlier work

Molecule | IRI activity (literature)
Nisin A (ITSISLCTPGCKTGALMGCNMKTATCHCSIHVSK; also: lantibiotic, lanthionine rings and dehydro residues not placed; UniProt P13068 24-57, looked up) [a short antimicrobial peptide] | pH dependent IRI activity
poly(hydroxyproline) | potent IRI activity
